Test system: PANC-1 cells
Test: mCherry-EGFP-LC3 tandem reporter assay, autophagosomes/autolysosomes
Format: cell-based, human
Settings: for autophagic flux: bafilomycin A1 co-treatment; for enhanced number of mCherry puncta: co-treatment with bafilomycin A1; for fold increase in number of mCherry puncta: mCherry puncta (autolysosomes); for fold increase in number of EGFP puncta: panc-1 cells
Procedure: FIG. 1. The structure of AUTAC-4 is shown in (A). (B) Representative images of SH-SY5Y cells stably expressing the mito-mKeima reporter treated with AUTAC4 for 18 h. Nuclei were stained with Hoechst 33342, healthy mitochondria are shown in green and mitochondria in lysosomes are shown in red. (C-E) Fold change in mitophagy index over time after treatment with increasing concentrations of AUTAC4 under treatment with DMSO (C), 3 mM CCCP (D) or 0.1/0.1 mM antimycin/oligomycin (E), also for 18 h. (F) Quantification of changes in mitochondrial membrane potential over time (DYm) by measuring the TMRM relative fluorescence intensity (RFI) treated with DMSO, 10 mM CCCP, 10 mM and 20 mM AUTAC4. Normalised to number of nuclei. (G) Representative western blot of SH-SY5Y cells treated with DMSO, 10 mM AUTAC4 or 10 mM AUTAC4+0.1/0.1 mM antimycin/oligomycin for 18 h and, probed for p62, b-actin and Tom20. Quantifications of western blot for changes in Tom20 and p62 levels shown in (H) and (I), respectively. (J) Representative images of PANC-1 cells stably expressing the mCherry-EGFP-LC3 tandem reporter. Nuclei stained with Hoechst 33342, autophagosomes are shown in the EGFP channel and autolysosomes in the mCherry channel. Fold change in the number of autophagosome (K) and autolysosome (L) puncta in AUTAC4 treated cells. All data shown are mean±SEM, n=3, *p<0.05, *** p<0.001. For mito-mKeima experiments, statistics were calculated by Two-way ANOVA with Tukey's multiple comparisons test. For western blots, TMRM and LC3 tandem reporter assay, statistics were calculated with one-way ANOVA with Tukey's multiple comparisons test.
FIG. 2. BL-918 is a potent ULK1 agonist and autophagy inducer (A) Representative images of PANC-1 cells stably expressing the mCherry-EGFP-LC3 tandem reporter treated with ULK1 agonists. Nuclei stained with Hoechst 33342, autophagosomes are shown in the EGFP channel and autolysosomes in the mCherry channel. Fold change in the number of autophagosomes (B) and autolysosomes (C) puncta in ULK1 agonist treated cells. (D) Western blot of PANC-1 cells treated with DMSO, bafilomycin and ULK1 agonists±bafilomycin; probed for p-ULK1 (S317), ULK1, p62, b-actin, LC3-I and LC3-II. Quantifications of western blot for changes in the ratio of p-ULK1 (S317):ULK1 (E), p62 (F) and LC31:LC3II (G). All data shown are mean±SEM, n=3, *p<0.05, ** p<0.01, one-way ANOVA with Dunnett's multiple comparisons test.
FIG. 4. ULKTACs retain ULK1 agonist activity and subsequent induction of autophagy (A) Western blot of PANC-1 cells treated with ULKTACs±bafilomycin, probed for p-ULK1 (S317), ULK1, p62, b-Actin, LC31 and LC3II. Quantifications of (A) for the pULK1:ULK1 ratio (B) LC3I:LC3II ratio (C) and changes in p62 (D). (E) Representative images of PANC-1 cells stably expressing the mCherry-EGFP-LC3 tandem reporter treated with ULKTACs w/or w/o bafilomycin. Nuclei stained with Hoechst 33342, autophagosomes are shown in the EGFP channel and autolysosomes in the mCherry channel. Fold change in the number of autophagosome (F) and autolysosome (G) puncta. Data shown are mean±SEM, *p<0.05, ** p<0.01, *** p<0.001, one-way ANOVA, Dunnett's multiple comparisons test.
PANC-1 and A549 cells were separately seeded at a medium density in 24-well plates and infected overnight with 500 μL of filtered viral supernatant containing polybrene at a final concentration of 8 μg/mL. Cells were selected at 48 h post-transfection with 1 μg/mL puromycin and expanded into 10 cm tissue-culture treated dishes. Puromycin treatment was withheld once control cells had died. Experiments were performed without puromycin present using pooled populations of transduced cells. A549 and PANC-1 stably expressing mCherry-EGFP-LC3 tandem reporter cells were imaged with the PerkinElmer Opera Phenix or Opera Phenix Plus High Content Imaging Systems and analysed using Columbus software (v2.9.1). […]

Row | SMILES | green fluorescent puncta / number of autophagosomes | autophagic flux | enhanced number of mCherry puncta | fold increase in number of mCherry puncta [fold] | fold increase in number of EGFP puncta [fold]
1 | O=C(Nc1ccc(F)cc1F)[C@H](NC(=S)Nc1cc(C(F)(F)F)cc(C(F)(F)F)c1)c1ccccc1 [BL-918, reference compound] | mild increase in autophagosome number |  |  |  | 
2 | O=C(Nc1cc(C(F)(F)F)cc(C(F)(F)F)c1)N[C@@H](C(=O)Nc1ccc(F)cc1F)c1ccc(OCc2cn(CCOCCOCCNC(=O)C(=O)c3c(-c4ccccc4)[nH]c4ccccc34)nn2)cc1 [NZ-65, (R)-2-(3-(3,5-bis(trifluoromethyl)phenyl)ureido)-N-(2,4-difluorophenyl)-2-(4-((1-(2-(2-(2-(2-oxo-2-(2-phenyl-1H-indol-3-yl)acetamido)ethoxy)ethoxy)ethyl)-1H-1,2,3-triazol-4-yl)methoxy)phenyl) acetamide] |  | did not block autophagic flux | reversed | 1.3 | 1.5
3 | O=C(Nc1cc(C(F)(F)F)cc(C(F)(F)F)c1)N[C@@H](C(=O)Nc1ccc(F)cc1F)c1ccc(OCc2cn(CCCCCCNC(=O)C(=O)c3c(-c4ccccc4)[nH]c4ccccc34)nn2)cc1 [NZ-66, (R)-2-(3-(3,5-bis(trifluoromethyl)phenyl)ureido)-N-(2,4-difluorophenyl)-2-(4-((1-(6-(2-oxo-2-(2-phenyl-1H-indol-3-yl)acetamido)hexyl)-1H-1,2,3-triazol-4-yl)methoxy)phenyl) acetamide] |  | did not block autophagic flux | reversed | 1.3 | 1.5
